Experimental data taken from patent US20150374767A1, “Treatment of Cancer” (priority 2013, published 2015).
Where two headings read alike, the source gives them in different places.

Experiments:
[1] = tested on: Virttu cell line panel; test: cells; assay type: cell-based; conditions: Homo sapiens, read-out: IC50 (DCP leakage), range
[2] = tested on: U87; assay type: cell-based, human
[3] = tested on: HuH7; assay type: cell-based, human
[4] = tested on: SPC111; test: combination with HSV1716, Chou-Talalay, SPC111; assay type: cell-based, human
[5] = tested on: non-sensitive cells; conditions: read-out: IC50 for non-sensitive cells, previously reported; cited from earlier work
[6] = tested on: SKOV3; assay type: cell-based, human
[7] = tested on: Virttu cell panel; test: combination with HSV1716, DCP cell death, Chou-Talalay analysis, cell panel; assay type: cell-based, human; conditions: for number of cell lines tested in which antagonism was detected: drug + HSV1716 moi 0.5 and 0.05, cell death by DCP after 72 hours
[8] = tested on: A431; assay type: cell-based, human
[9] = tested on: EGFR- or ErbB2-overexpressing cells; conditions: read-out: IC50, growth of EGFR- or ErbB2-overexpressing cells; cited from earlier work
[10] = tested on: A431 cells; test: cells; conditions: Homo sapiens, A-431, 72 h, read-out: IC50 (DCP leakage)
[11] = tested on: UVW; assay type: cell-based, human
[12] = tested on: A431 cells; conditions: read-out: IC50 in A431 cells, previously reported; cited from earlier work
[13] = tested on: Hep3B; assay type: cell-based, human
[14] = tested on: human gastric carcinoma xenograft; test: patient-derived human gastric carcinoma xenograft model; parameters: species or system mice; conditions: mouse, in vivo
Protocol: HSV1716 (Seprehvir) was used in a personalised oncology study. Patient-derived tumour samples were obtained from a gastric carcinoma. There have been no previous in vitro or in vivo pre-clinical studies with Seprehvir in human gastric carcinoma cells/xenografts. Seprehvir was stored at −70° C., and multiple vials were provided to avoid repeated freeze/thawing.
Two groups of 3 mice with gastric carcinoma implants were treated with 2×10^6 pfu Seprehvir by either intratumoural (IT) or intravenous (IV) routes of administration. Control mice (n=3) received no treatment and in these mice the implants grew rapidly and all were sacrificed within 18 days (FIG. 61). For IV injection, Seprehvir was administered on days 0, 3, 10 and 18, at which point the tumors were too large and the mice were sacrificed.
For IT injection of Seprehvir, 2×10^6 pfu was administered on days 0, 3, 10, 18, 21 and 25.
. Control mice (n=3) received no treatment and in these mice the implants grew rapidly and all were sacrificed within 18 days (FIG. 62). […]. A follow-on study with HSV1716 administering more frequent by IV dosing at the higher concentration of 10^7 pfu was performed using the same human gastric carcinoma xenograft model. […].
Groups of 3 mice received IV injection of HSV1716 at 1×10^7 pfu on days 1, 3, 5, 8, 10, 12, 15, 17 and 19. […]

[15] = tested on: cells expressing low levels of EGFR or ErbB2; conditions: read-out: IC50, cells expressing low levels of EGFR or ErbB2; cited from earlier work

SMILES: C#Cc1cccc(Nc2ncnc3cc(OCCOC)c(OCCOC)cc23)c1 [Erlotinib, N-(3-ethynylphenyl)-6,7-bis(2-methoxyethoxy)quinazolin-4-amine]
- IC50 ([1]; A-431, all other cell lines (other than A431), 72 hours): 1000 to 25000 nM
- synergy/antagonism with HSV1716 on cell death (Chou-Talalay) [2]: synergistic
- number of synergistic combinations out of 8 [3]: 1/8
- synergy/antagonism with HSV1716 on cell death (Chou-Talalay) [3]: limited synergy
- synergy/antagonism with HSV1716 on cell death (Chou-Talalay) ([4]; SPC111, HSV1716 moi 0.5 and 0.05, 72 hours): limited synergy
- number of synergistic combinations out of 8 ([4]; SPC111, synergy at moi 0.05): 1/8
- IC50 [5]: > 10000 nM
- number of synergistic combinations out of 8 [6]: 1/8
- synergy/antagonism with HSV1716 on cell death (Chou-Talalay) [6]: limited synergy
- overall synergy/antagonism with HSV1716 on cell death [7]: mostly antagonistic
- number of cell lines tested in which antagonism was detected [7]: 9 out of 10

SMILES: CS(=O)(=O)CCNCc1ccc(-c2ccc3ncnc(Nc4ccc(OCc5cccc(F)c5)c(Cl)c4)c3c2)o1 [Lapatinib, N-[3-chloro-4-[(3-fluorophenyl)methoxy]phenyl]-6-[5-[(2-methylsulfonylethylamino)methyl]-2-furyl]quinazolin-4-amine]
- number of synergistic combinations out of 8 [8]: 1/8
- synergy/antagonism with HSV1716 on cell death (Chou-Talalay) [8]: some synergy
- IC50 ([1]; A-431, 72 h): 4000 to 30000 nM
- number of synergistic combinations out of 8 [2]: 2/8
- synergy/antagonism with HSV1716 on cell death (Chou-Talalay) [2]: some synergy
- IC50 [9]: 90 to 210 nM
- IC50 [10]: 150 nM
- synergy/antagonism with HSV1716 on cell death (Chou-Talalay) [11]: strongly synergistic
- IC50 [12]: 160 nM
- synergy/antagonism with HSV1716 on cell death (Chou-Talalay) [13]: strongly synergistic
- tumour growth inhibition [14]: some tumour growth inhibition until day 6
- number of cell lines tested in which antagonism was detected [7]: 8 of the 10
- IC50 [15]: 3000 to 12000 nM
